In ChEMBL document CHEMBL1201862, “PubChem BioAssay data set” (2004) one finds IC50 data, which are given here for two compounds.

The structures appear in SMILES notation. Calls of active or inactive are those of the source. Cut-off read from the data, not from the text of the source: actives have a measured IC50 and inactives only a lower limit.

In this assay the target is Envelope glycoprotein gp160 (Human immunodeficiency virus 1, UniProt Q6QLK5). The assay is described as follows: inhibitors of HIV fusion peptide binding, primary screen, biochemical, uHTS, fluorescence dequenching (AID 1986).
Envelope glycoprotein gp160, sequence (Q6QLK5 whole entry, the tested form may be a part): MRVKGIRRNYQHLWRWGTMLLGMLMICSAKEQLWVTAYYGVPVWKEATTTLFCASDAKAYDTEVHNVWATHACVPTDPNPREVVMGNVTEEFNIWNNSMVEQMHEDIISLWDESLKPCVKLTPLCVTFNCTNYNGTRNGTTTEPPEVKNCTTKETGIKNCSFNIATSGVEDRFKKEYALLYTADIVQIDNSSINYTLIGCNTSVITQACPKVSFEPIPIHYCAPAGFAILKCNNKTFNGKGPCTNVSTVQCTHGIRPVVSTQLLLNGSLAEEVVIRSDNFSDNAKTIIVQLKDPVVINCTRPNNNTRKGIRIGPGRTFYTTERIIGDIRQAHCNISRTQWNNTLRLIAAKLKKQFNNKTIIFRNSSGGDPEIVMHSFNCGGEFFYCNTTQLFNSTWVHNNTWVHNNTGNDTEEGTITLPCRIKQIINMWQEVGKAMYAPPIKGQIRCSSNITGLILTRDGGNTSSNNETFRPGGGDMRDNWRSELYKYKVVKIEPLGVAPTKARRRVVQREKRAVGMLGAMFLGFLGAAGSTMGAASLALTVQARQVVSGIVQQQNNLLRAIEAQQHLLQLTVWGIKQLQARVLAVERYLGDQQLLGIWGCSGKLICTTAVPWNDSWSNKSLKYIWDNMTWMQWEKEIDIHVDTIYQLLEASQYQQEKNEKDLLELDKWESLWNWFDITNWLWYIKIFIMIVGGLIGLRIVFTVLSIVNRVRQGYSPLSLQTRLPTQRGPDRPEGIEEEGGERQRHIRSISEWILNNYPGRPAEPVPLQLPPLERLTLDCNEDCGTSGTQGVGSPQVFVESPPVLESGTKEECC

Usually IC50 stands for the concentration needed to halve the response being measured. In the case of `O=C(O)c1[nH]c2ccccc2c1C(c1cccc(O)c1)c1c(C(=O)O)[nH]c2ccccc12`, the 50% inhibitory concentration (IC50) is 25.8 µM (active).
The figure for `Cc1cccc(S(=O)(=O)Nc2nc3ccccc3nc2Nc2cccc(C(=O)O)c2)c1` is 29 µM (active).
